These results are taken from patent US20150152083A1, “Compounds and Compositions for Modulating EGFR Activity” (IRM LLC, A Delaware Limited Liability Company, priority 2012, published 2015).

Experiment [1] has as its target T1, EGFR(L858R/T790M) (Homo sapiens, UniProt P00533, L858R/T790M). Kind of experiment: EGFR biochemical assay (HTRF), IC50 determination. Set-up: purchased from Carna (GST-a.a. 669-1210); purchased Carna. The following applies: 10 μM ATP. On the procedure: All EGFR biochemical assays were carried out by HTRF method. The EGFR(L858RT790M) enzyme were purchased from Carna (GST-a.a. 669-1210). The substrate peptide Biotin-TK-peptide was purchased from Cis-Bio. The reaction mixtures contained 1 μM peptide substrate, 10 μM ATP, and 0.036 nM EGFR(L858RT790M) in the reaction buffer (50 mM HEPES pH 7.1, 10 mM MgCl2, 0.01% BSA, 1 mM TCEP and 0.1 mM Na3VO4) at a final volume of 10 μL. All reactions were carried out at room temperature in white ProxiPlate™ 384-well Plus plates (PerkinElmer) and were quenched with 5 μL of 0.2 M EDTA at 60 min Five μL of the detection reagents (2.5 ng PT66K and 0.05 μg SAXL per well) were added, the plates were incubated at room temperature for 1 h and then read in EnVision reader. […] For no-preincubation condition, the compounds were added to the assay solution containing ATP and peptide, and the reaction was initiated by addition of enzyme. For pre-incubation conditions, the compounds were added to the assay solution containing enzyme and peptide, and pre-incubated at room temperature for desired period of time, then the reaction was initiated by addition of ATP.
Target sequence in this assay (P00533 669-1210 T790M/L858R): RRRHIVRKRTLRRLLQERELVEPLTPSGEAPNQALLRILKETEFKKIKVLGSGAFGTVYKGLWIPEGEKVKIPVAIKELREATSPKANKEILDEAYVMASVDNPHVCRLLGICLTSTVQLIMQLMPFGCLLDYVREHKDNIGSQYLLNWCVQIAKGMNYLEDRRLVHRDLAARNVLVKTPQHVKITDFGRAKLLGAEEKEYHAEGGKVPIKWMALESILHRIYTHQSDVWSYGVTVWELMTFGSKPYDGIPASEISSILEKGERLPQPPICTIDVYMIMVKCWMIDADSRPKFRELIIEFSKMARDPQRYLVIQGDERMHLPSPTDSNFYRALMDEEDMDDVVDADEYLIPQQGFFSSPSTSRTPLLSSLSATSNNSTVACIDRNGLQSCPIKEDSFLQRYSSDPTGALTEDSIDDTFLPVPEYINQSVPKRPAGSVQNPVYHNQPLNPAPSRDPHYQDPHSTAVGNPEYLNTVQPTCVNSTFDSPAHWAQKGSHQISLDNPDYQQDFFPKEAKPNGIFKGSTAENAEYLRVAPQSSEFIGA
For orientation: Time-resolved FRET reads energy transfer from a long-lived donor to a nearby acceptor.

For experiment [2], the target named is T1, EGFR(L858R/T790M). Nature of the experiment: EGFR target modulation in engineered NIH3T3 cell lines (phospho-EGFR AlphaLISA). The format is cell-based. The following applies: NIH3T3 cells expressing human EGFR L858R/T790M; 3 hours compound. Set-up: host or cells: NIH3T3. On the procedure:
(§1) EGFR Target Modulation in Engineered NIH3T3 Cell Lines
(§2) NIH3T3 cell lines expressing human EGFR (WT, L858R, and L858RT790M) (obtained from Matthew Meyerson's Lab at DFCI) were maintained in 10% FBS/DMEM supplemented with 100 μg/ml Penicillin/Streptomycin (Hyclone #SV30010) and 2 μg/ml Puromycin. The cells were harvested with 0.05% Trypsin/EDTA (Hyclone #SH30236.01), re-suspended in 5% FBS/DMEM Pen/Strep without Puromycin and plated at 9,000 cells per well in 50 μl of media in a 384-well black plate with clear bottoms (Greiner #789068G). The cells were allowed to incubate overnight in a 37° C., 5% CO2 humidified tissue culture incubator. A 12-point test compound curve was prepared by serial diluting a 10 μM stock 1:3 in DMSO in a 384-well compound plate (Greiner #789201L). The serial diluted compounds were transferred to the plate containing cells by using a 50 nl Pin Head device (Perkin Elmer) and the cells were placed back in the incubator for 3 hours. Only the EGFR WT-expressing cells were induced with 50 ng/ml EGF (Preprotech #AF-100-15) for 5 minutes before lysis. The media was removed and cells were lysed in 25 μl of Lysis buffer containing protease and phosphatase inhibitors (1% Triton X-100, 20 mM Tris, pH 7.5, 1 mM EDTA, 1 mM EGTA, 150 mM NaCl, 1× complete cocktail inhibitor (Roche #11 697 498 001), 1× Phosphatase Inhibitor Cocktail Set II and Set III (Sigma #P5726 and #P0044)). The plates were shaken at 4° C. for 5 minutes with foil top at maximum speed. An aliquot of 5 μl from each well was transferred to ProxiPlate™ 384-well Plus plates (PE #6008289). The plates were sealed with a foil top and frozen at −80° C. and thawed when needed.
(§3) The frozen aliquots were thawed and briefly centrifuged. All antibodies and beads were diluted in 1× AlphaLISA HiBlock Buffer (PE #AL004C). Biotinylated anti-phospho-EGFR (Y1068) (Cell Signaling #4031) was incubated with the lysate for 1 hour at room temperature at 1 nM final concentration. Goat anti-total EGFR (R&D Systems #AF231) was added and allowed to equilibrate for 1 hour at room temperature at 1 nM final concentration. Then, 10 μl of mixed beads (AlphaScreen Streptavidin Donor Beads (PE #6760002S) and AlphaLISA anti-goat IgG Acceptor Beads (PE #AL107C)) was equilibrated for 1.5 hours before reading on EnVision plate reader using the built-in settings for AlphaScreen.
(§4) Cells untreated (L858R and L858RT790M) or EGF-induced (WT) were set to 100% maximum response. For a negative control, 10 μM HKI-272 was used to normalize data to 0% of maximum response. With these parameters, the IC50's for each compound in each cell line was calculated using non-linear curve fitting analysis.
Target sequence in this assay (P00533 25-1210 T790M/L858R): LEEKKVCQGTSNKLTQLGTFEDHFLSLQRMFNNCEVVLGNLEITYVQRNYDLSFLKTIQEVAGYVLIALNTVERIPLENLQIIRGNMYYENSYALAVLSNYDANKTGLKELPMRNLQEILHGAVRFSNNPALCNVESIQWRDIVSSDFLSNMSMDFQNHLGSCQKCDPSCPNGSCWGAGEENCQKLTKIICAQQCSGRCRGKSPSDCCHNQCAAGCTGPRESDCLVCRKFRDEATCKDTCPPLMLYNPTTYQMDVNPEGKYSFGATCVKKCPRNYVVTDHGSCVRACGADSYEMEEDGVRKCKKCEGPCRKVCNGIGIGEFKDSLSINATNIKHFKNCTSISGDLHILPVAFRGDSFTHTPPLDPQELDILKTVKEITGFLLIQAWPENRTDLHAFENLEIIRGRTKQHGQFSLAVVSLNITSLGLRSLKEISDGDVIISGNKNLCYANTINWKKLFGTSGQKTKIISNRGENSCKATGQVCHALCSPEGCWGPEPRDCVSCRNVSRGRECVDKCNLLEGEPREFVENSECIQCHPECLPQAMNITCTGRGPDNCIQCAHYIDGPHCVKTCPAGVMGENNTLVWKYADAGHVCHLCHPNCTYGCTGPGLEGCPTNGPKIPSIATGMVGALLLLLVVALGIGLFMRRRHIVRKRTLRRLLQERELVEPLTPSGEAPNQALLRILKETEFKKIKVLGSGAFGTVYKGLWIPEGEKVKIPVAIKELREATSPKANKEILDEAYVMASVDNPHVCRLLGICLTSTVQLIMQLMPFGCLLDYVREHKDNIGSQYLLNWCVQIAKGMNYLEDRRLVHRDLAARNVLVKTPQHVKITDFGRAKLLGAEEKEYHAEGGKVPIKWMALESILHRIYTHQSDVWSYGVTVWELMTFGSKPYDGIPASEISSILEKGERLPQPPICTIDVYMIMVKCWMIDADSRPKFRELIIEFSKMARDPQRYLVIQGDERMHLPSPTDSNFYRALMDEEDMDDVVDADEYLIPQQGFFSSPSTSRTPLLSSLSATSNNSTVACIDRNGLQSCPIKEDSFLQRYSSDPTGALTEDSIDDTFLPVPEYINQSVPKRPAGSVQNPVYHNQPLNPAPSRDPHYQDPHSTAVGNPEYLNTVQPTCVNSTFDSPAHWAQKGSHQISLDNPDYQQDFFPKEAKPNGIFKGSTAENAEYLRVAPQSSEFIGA

A further experiment concerns the target T2, EGFR (L858R) (Homo sapiens, UniProt P00533, L858R).
T2 construct: host or cells: NIH3T3
The experiment is described as above. Format: cell-based. The following applies: NIH3T3 cells expressing human EGFR L858R; 3 hours compound. On the procedure:
as §1, §2, §3, §4

The target in another experiment is T3, EGFR (WT) (Homo sapiens, UniProt P00533).
T3 construct: host or cells: NIH3T3
The experiment is described as above. The format is cell-based. The following applies: NIH3T3 cells expressing human EGFR WT; 3 hours compound; induced with 50 ng/ml EGF. On the procedure:
as §1, §2, §3, §4

Setting [3] is: EGFR (L858R/T790M) IC50 (μM) 90 min pre-incubation, 90 min pre-incubation.
Setting [4] is: no pre-incubation, read-out: EGFR (L858R/T790M) IC50 (μM) No pre-incubation.

The structures appear in SMILES notation.

T2 sequence (P00533 25-1210 L858R): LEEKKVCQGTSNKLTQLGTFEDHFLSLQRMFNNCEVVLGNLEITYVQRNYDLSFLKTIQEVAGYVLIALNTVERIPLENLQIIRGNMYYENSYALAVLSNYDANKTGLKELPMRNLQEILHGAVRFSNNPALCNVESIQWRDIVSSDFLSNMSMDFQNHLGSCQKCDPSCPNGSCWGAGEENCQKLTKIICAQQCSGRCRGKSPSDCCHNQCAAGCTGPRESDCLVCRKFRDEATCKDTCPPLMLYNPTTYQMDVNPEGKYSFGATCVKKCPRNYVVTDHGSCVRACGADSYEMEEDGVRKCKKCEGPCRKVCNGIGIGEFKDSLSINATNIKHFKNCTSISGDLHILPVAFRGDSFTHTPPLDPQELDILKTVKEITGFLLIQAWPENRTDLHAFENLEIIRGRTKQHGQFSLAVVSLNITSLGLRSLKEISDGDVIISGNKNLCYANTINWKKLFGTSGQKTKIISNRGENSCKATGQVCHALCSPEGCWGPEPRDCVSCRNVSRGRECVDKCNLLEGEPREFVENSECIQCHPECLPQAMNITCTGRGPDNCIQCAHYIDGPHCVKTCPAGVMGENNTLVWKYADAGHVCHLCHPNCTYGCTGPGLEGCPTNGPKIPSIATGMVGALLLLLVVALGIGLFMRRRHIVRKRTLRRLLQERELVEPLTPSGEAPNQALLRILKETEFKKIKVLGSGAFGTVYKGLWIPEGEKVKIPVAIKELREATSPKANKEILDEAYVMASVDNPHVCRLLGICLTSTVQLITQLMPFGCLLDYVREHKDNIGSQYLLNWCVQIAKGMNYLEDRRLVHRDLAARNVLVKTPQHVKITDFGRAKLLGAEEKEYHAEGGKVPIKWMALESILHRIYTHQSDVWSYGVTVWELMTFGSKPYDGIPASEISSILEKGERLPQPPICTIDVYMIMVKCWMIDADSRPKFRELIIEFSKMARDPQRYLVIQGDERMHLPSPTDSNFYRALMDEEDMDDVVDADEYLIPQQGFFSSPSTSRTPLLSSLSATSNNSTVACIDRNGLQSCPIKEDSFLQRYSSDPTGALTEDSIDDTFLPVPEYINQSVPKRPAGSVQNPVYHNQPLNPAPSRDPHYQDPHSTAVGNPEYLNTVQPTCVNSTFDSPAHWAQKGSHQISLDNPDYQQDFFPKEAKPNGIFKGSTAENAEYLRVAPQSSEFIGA
T3 sequence (P00533 25-1210): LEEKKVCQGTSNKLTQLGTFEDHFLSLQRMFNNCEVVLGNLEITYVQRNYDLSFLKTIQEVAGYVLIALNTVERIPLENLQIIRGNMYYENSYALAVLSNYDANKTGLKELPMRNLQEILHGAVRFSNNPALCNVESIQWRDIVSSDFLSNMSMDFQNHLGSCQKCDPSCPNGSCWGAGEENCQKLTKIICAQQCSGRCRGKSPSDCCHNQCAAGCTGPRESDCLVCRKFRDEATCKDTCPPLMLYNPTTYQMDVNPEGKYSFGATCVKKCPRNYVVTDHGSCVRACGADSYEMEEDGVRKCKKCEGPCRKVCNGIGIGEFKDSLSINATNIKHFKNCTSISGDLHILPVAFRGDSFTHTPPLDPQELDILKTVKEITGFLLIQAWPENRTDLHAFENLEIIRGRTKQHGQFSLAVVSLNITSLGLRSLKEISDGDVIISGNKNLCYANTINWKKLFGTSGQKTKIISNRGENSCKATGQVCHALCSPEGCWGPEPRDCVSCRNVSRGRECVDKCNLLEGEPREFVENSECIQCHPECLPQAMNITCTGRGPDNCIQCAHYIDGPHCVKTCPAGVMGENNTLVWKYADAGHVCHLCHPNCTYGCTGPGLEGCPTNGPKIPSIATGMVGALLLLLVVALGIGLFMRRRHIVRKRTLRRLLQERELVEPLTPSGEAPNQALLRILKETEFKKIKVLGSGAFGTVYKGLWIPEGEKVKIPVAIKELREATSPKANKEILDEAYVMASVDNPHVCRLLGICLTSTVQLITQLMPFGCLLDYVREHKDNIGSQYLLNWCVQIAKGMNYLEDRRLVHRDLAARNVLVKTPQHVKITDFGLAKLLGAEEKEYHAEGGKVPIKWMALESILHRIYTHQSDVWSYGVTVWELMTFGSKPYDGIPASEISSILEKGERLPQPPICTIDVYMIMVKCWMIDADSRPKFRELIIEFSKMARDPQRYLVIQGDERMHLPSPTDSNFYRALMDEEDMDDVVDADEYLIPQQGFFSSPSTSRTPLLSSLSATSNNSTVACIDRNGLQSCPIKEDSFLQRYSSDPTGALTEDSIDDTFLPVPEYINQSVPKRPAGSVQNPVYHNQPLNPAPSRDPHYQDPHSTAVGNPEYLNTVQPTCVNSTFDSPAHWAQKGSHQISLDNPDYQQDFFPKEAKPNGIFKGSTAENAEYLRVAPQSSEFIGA

`C=CC(=O)Nc1cccc(-n2c(NC(=O)c3cccc(C(F)(F)F)c3)nc3cccc(C)c32)c1` [Example 2-13, N-{7-methyl-1-[3-(prop-2-enamido)phenyl]-1H-1,3-benzodiazol-2-yl}-3-(trifluoromethyl)benzamide]: the IC50 on EGFR(L858R/T790M) [1] (setting [3]) is 0.004 µM; at EGFR(L858R/T790M) [1] (setting [4]) it was 0.057 µM; against EGFR(L858R/T790M) [2] it was 0.079 µM; at EGFR (L858R) it was 0.31 µM; against EGFR (WT), more than 10 µM.

On to `C=CC(=O)Nc1cccc(-n2c(NC(=O)c3cccc(C(F)(F)F)c3)nc3cc(C)ccc32)c1` [Example 2-9, N-{5-methyl-1-[3-(prop-2-enamido)phenyl]-1H-1,3-benzodiazol-2-yl}-3-(trifluoromethyl)benzamide], for which the IC50 at EGFR(L858R/T790M) [1] (setting [3]) is 0.006 µM; at EGFR(L858R/T790M) [1] (setting [4]) it was 0.049 µM; at EGFR(L858R/T790M) [2], 0.052 µM; against EGFR (L858R) it was 0.55 µM; against EGFR (WT), more than 10 µM.

Take `C=CC(=O)Nc1cccc(-n2c(NC(=O)c3cccc(F)c3)nc3cc(C)ccc32)c1` [Example 2-1, 3-fluoro-N-{5-methyl-1-[3-(prop-2-enamido)phenyl]-1H-1,3-benzodiazol-2-yl}benzamide]: the IC50 against EGFR(L858R/T790M) [1] (setting [3]) is 0.003 µM; on EGFR(L858R/T790M) [1] (setting [4]), 0.023 µM; against EGFR(L858R/T790M) [2], 0.028 µM; on EGFR (L858R) it was 0.33 µM; on EGFR (WT), more than 10 µM.

On to `C=CC(=O)Nc1cccc(-n2c(NC(=O)c3cccc(-c4ccccc4)c3)nc3cc(C)ccc32)c1` [Example 2-7, N-{5-methyl-1-[3-(prop-2-enamido)phenyl]-1H-1,3-benzodiazol-2-yl}-3-phenylbenzamide], for which the IC50 against EGFR(L858R/T790M) [1] (setting [3]) was less than 0.001 µM; on EGFR(L858R/T790M) [1] (setting [4]) it was 0.006 µM; against EGFR(L858R/T790M) [2] it was 0.007 µM; on EGFR (L858R) it was 0.023 µM; against EGFR (WT) it was more than 10 µM.

`C=CC(=O)NCCCn1c(NC(=O)c2cccc(C(F)(F)F)c2)nc2cc(C)ccc21` [Example 8-4, N-{5-methyl-1-[3-(prop-2-enamido)propyl]-1H-1,3-benzodiazol-2-yl}-3-(trifluoromethyl)benzamide]: the IC50 was 0.046 µM against EGFR(L858R/T790M) [1] (setting [3]); 0.62 µM at EGFR(L858R/T790M) [1] (setting [4]); 0.83 µM against EGFR(L858R/T790M) [2]; more than 10 µM against EGFR (L858R); more than 10 µM against EGFR (WT).

Take `C=CC(=O)Nc1cccc(-n2c(NC(=O)c3cccc(C(F)(F)F)c3)nc3cc(CO)ccc32)c1` [Example 3, N-(1-(3-acrylamidophenyl)-5-(hydroxymethyl)-1H-benzo[d]imidazol-2-yl)-3-(trifluoromethyl)benzamide]: the IC50 against EGFR(L858R/T790M) [1] (setting [3]) is 0.003 µM; on EGFR(L858R/T790M) [1] (setting [4]), 0.028 µM; against EGFR(L858R/T790M) [2], 0.036 µM; on EGFR (L858R), 0.45 µM; at EGFR (WT), more than 10 µM.

As for `C=CC(=O)Nc1cccc(-n2c(NC(=O)c3cccc(C(F)(F)F)c3)nc3cc(CN4CCOCC4)ccc32)c1` [Example 5-3, N-[5-(morpholin-4-ylmethyl)-1-[3-(prop-2-enamido)phenyl]-1H-1,3-benzodiazol-2-yl]-3-(trifluoromethyl)benzamide], the IC50 against EGFR(L858R/T790M) [1] (setting [3]) was 0.003 µM; on EGFR(L858R/T790M) [1] (setting [4]), 0.072 µM; on EGFR(L858R/T790M) [2] it was 0.026 µM; at EGFR (L858R), 0.25 µM; against EGFR (WT), more than 10 µM.

Take `C=CC(=O)N[C@@H]1CCC[C@H](n2c(NC(=O)c3cccc(C(F)(F)F)c3)nc3cc(C)ccc32)C1` (racemic) [Example 8-1, N-{5-methyl-1-[(1S,3R)-3-(prop-2-enamido)cyclohexyl]-1H-1,3-benzodiazol-2-yl}-3-(trifluoromethyl)benzamide]: the IC50 against EGFR(L858R/T790M) [2] is 0.041 µM; against EGFR (L858R), 0.54 µM; against EGFR (WT), more than 10 µM.

`C=CC(=O)Nc1cccc(-n2c(NC(=O)c3ccc(F)c(F)c3)nc3cc(C)ccc32)c1` [Example 2-2, 3,4-difluoro-N-{5-methyl-1-[3-(prop-2-enamido)phenyl]-1H-1,3-benzodiazol-2-yl}benzamide]: the IC50 against EGFR(L858R/T790M) [1] (setting [3]) was 0.002 µM; on EGFR(L858R/T790M) [1] (setting [4]), 0.054 µM; against EGFR(L858R/T790M) [2], 0.08 µM; at EGFR (L858R) it was 0.2 µM; against EGFR (WT) it was more than 10 µM.

Take `C=CC(=O)Nc1cccc(-n2c(NC(=O)c3ccc(Cl)c(Cl)c3)nc3cc(C)ccc32)c1` [Example 2-4, 3,4-dichloro-N-{5-methyl-1-[3-(prop-2-enamido)phenyl]-1H-1,3-benzodiazol-2-yl}benzamide]: the IC50 at EGFR(L858R/T790M) [1] (setting [3]) is 0.023 µM; at EGFR(L858R/T790M) [1] (setting [4]), 0.27 µM; against EGFR(L858R/T790M) [2] it was 0.22 µM; against EGFR (L858R) it was 0.33 µM; against EGFR (WT), more than 10 µM.

With `C=CC(=O)N[C@@H]1CCC[C@@H](n2c(NC(=O)c3cccc(C(F)(F)F)c3)nc3cc(C)ccc32)C1` (racemic) [Example 8-2, N-{5-methyl-1-[(1S,3S)-3-(prop-2-enamido)cyclohexyl]-1H-1,3-benzodiazol-2-yl}-3-(trifluoromethyl)benzamide], the IC50 was 0.051 µM against EGFR(L858R/T790M) [1] (setting [3]); 0.27 µM at EGFR(L858R/T790M) [1] (setting [4]); 0.41 µM at EGFR(L858R/T790M) [2]; more than 3.7 µM against EGFR (L858R); more than 10 µM on EGFR (WT).

On to `C=CC(=O)Nc1cccc(-n2c(NC(=O)c3cccc(C(F)(F)F)c3)nc3cc(COCC)ccc32)c1` [Example 4, N-(1-(3-acrylamidophenyl)-5-(ethoxymethyl)-1H-benzo[d]imidazol-2-yl)-3-(trifluoromethyl)benzamide], for which the IC50 is 0.005 µM against EGFR(L858R/T790M) [1] (setting [3]); 0.071 µM on EGFR(L858R/T790M) [1] (setting [4]); 0.1 µM against EGFR(L858R/T790M) [2]; 1.1 µM against EGFR (L858R); more than 10 µM against EGFR (WT).

For `C=CC(=O)Nc1cccc(-n2c(NC(=O)c3cccc(C)c3)nc3cc(C)ccc32)c1` [Example 2-5, 3-methyl-N-{5-methyl-1-[3-(prop-2-enamido)phenyl]-1H-1,3-benzodiazol-2-yl}benzamide], the IC50 was 0.012 µM against EGFR(L858R/T790M) [1] (setting [3]); 0.14 µM at EGFR(L858R/T790M) [1] (setting [4]); 0.17 µM against EGFR(L858R/T790M) [2]; 1.3 µM against EGFR (L858R); more than 10 µM at EGFR (WT).

For `C=CC(=O)N[C@@H]1CCC[C@H](n2c(NC(=O)c3cccc(C(F)(F)F)c3)nc3cc(C)ccc32)C1` (single isomer, unassigned) [Example 9-2B], the IC50 at EGFR(L858R/T790M) [2] is 0.4 µM; against EGFR (L858R) it was more than 10 µM; at EGFR (WT) it was more than 10 µM.

In the case of `C=CC(=O)N[C@H]1CCC[C@@H](n2c(NC(=O)c3cccc(C(F)(F)F)c3)nc3cc(C)ccc32)C1` (single isomer, unassigned) [Example 9-2A], the IC50 was 0.032 µM against EGFR(L858R/T790M) [2], 0.54 µM against EGFR (L858R) and more than 10 µM against EGFR (WT).
